Assay results as given in BindingDB's records for doi:10.1016/j.bmcl.2006.01.126 (Amgen, 2006).

Test: Inhibition of TARC-mediated CEM cell migration

| Structure (SMILES) | IC50 [µM] |
| --- | --- |
| c1ccc2c(Nc3nc(CN(CC4CCCCC4)CC4CCCCC4)cs3)cccc2c1 [4-((bis(cyclohexylmethyl)amino)methyl)-N-(naphthalen-1-yl)thiazol-2-amine] | 0.53 |
| Cc1csc(Nc2cccc3ccccc23)n1 [4-methyl-N-(naphthalen-1-yl)thiazol-2-amine] | 6.4 |
